Source: patent US11827629B2, “CDGSH iron sulfur domain 2 activators and use thereof” (National Health Research Institutes, priority 2021, dated 2023)

System: Cisd2 promoter with firefly luciferase reporter
Experiment: Cisd2-luciferase reporter assay in HEK293-CISD2 cells
Assay type: cell-based
Conditions: Homo sapiens, 24 hours incubation, luciferase luminescence
Procedure: A typical in vitro screening method includes the following steps: (i) obtaining an initial level of Cisd2 in a batch of human embryonic kidney cells 293 (HEK-293 cells) that express Cisd2, (ii) treating the batch of HEK-293 cells with a compound of this invention, and (iii) analyzing the level of Cisd2 after the treatment, thereby determining the potency of the compound as a Cisd2 activator.
Compounds 1-109 were tested for increasing the level of Cisd2 in human embryonic kidney cells 293 (HEK293), a transfected cell line expressing Cisd2, using the Cisd2-luciferase reporter assay as follows.
The transfected HEK293 cells stably expressed Cisd2 promoter with firefly luciferase reporter (HEK293-CISD2). They were kept in Dulbecco's modified Eagle's medium (DMEM) (Gibco, New York, NY, USA). Culture medium was supplemented with 10% heat-inactivated fetal bovine serum (FBS), 2 mM L-Glutamine, 1 mM sodium pyruvate, 0.1% MEM Non-Essential Amino Acids, 1 ug/ml puromycin and 1% penicillin/streptomycin (HyClone, Logan, UT, USA). The cells were maintained at 37° C. in an incubator (Thermo Fisher Scientific, New York, NY, USA) with an atmosphere of 5% CO2. The stably transfected cells were seeded in 384-well plates at a density of 3×10^3 cells/well. After incubation with tested compounds at 37° C. for 24 hours, ONE-Glo™ Luciferase Assay System (Promega, Madison, WI, USA) was added at room temperature for 5 minutes to detect any luciferase activity. Luminescence intensity was registered using plate reader Victor^2V (PerkinElmer, Boston, MA, USA).
EC50 values in this table are presented in three classes, i.e., A: <1 μM, B: 1 μM-5 μM, and C: 5 μM-10 μM.

Compound | EC50 [nM]
Nc1ccc2c(c1)CN(C(=O)CSc1ccccn1)C2 [Compound 15, 1-(5-amino-1,3-dihydro-2H-isoindol-2-yl)-2-(pyridin-2-ylsulfanyl)ethanone] | 1000 to 5000
O=C(C[S+]([O-])c1ccccc1Cl)N1Cc2ccccc2C1 (stereo not shown) [Compound 81, 2-[(2-chlorophenyl)sulfinyl]-1-(1,3-dihydro-2H-isoindol-2-yl)ethanone] | < 1000
O=C(N1Cc2ccccc2C1)C(F)(F)CSc1ccccn1 [Compound 27, 1-(1,3-dihydro-2H-isoindol-2-yl)-2,2-difluoro-3-(pyridin-2-ylsulfanyl)propan-1-one] | 1000 to 5000
O=C(CS(=O)(=O)c1ncccn1)N1Cc2ccccc2C1 [Compound 43, 1-(1,3-dihydro-2H-isoindol-2-yl)-2-(pyrimidin-2-ylsulfonyl)ethanone] | 1000 to 5000
O=C(CS(=O)(=O)c1cccs1)N1Cc2ccccc2C1 [Compound 46, 1-(1,3-dihydro-2H-isoindol-2-yl)-2-(thiophen-2-ylsulfonyl)ethanone] | < 1000
Cc1csc(S(=O)(=O)CC(=O)N2Cc3ccccc3C2)n1 [Compound 94, 1-(1,3-dihydro-2H-isoindol-2-yl)-2-[(4-methyl-1,3-thiazol-2-yl)sulfonyl]ethanone] | < 1000
Cc1cnc(S(=O)(=O)CC(=O)N2Cc3ccccc3C2)s1 [Compound 37, 1-(1,3-dihydro-2H-isoindol-2-yl)-2-[(5-methyl-1,3-thiazol-2-yl)sulfonyl]ethanone] | 5000 to 10000
O=C(CS(=O)(=O)c1ccccc1)N1Cc2cccc(F)c2C1 [Compound 96, 1-(4-fluoro-1,3-dihydro-2H-isoindol-2-yl)-2-(phenylsulfonyl)ethanone] | < 1000
COC(=O)c1ccc2c(c1)CN(C(=O)CSc1nccs1)C2 [Compound 9, methyl 2-[(1,3-thiazol-2-ylsulfanyl)acetyl]-2,3-dihydro-1H-isoindole-5-carboxylate] | < 1000
Cc1cnc(SCC(=O)N2Cc3ccc(F)cc3C2)s1 [Compound 12, 1-(5-fluoro-1,3-dihydro-2H-isoindol-2-yl)-2-[(5-methyl-1,3-thiazol-2-yl)sulfanyl]ethanone] | < 1000
O=C(CS(=O)(=O)c1cccc(F)c1)N1Cc2ccccc2C1 [Compound 86, 1-(1,3-dihydro-2H-isoindol-2-yl)-2-[(3-fluorophenyl)sulfonyl]ethanone] | < 1000
O=C(CSc1ncccc1F)N1Cc2ccccc2C1 [Compound 71, 1-(1,3-dihydro-2H-isoindol-2-yl)-2-[(3-fluoropyridin-2-yl)sulfanyl]ethanone] | < 1000
O=C(CS(=O)(=O)c1ccccc1F)N1Cc2ccc(F)cc2C1 [Compound 92, 1-(5-fluoro-1,3-dihydro-2H-isoindol-2-yl)-2-[(2-fluorophenyl)sulfonyl]ethanone] | < 1000
O=C(CS(=O)(=O)c1ccccc1F)N1Cc2ccccc2C1 [Compound 90, 1-(1,3-dihydro-2H-isoindol-2-yl)-2-[(2-fluorophenyl)sulfonyl]ethanone] | < 1000
O=C(CC[S+]([O-])c1ccccc1)N1Cc2ccccc2C1 (stereo not shown) [Compound 84, 1-(1,3-dihydro-2H-isoindol-2-yl)-3-(phenylsulfinyl)propan-1-one] | < 1000
O=C(CS(=O)(=O)c1ccc(F)cc1)N1Cc2ccccc2C1 [Compound 87, 1-(1,3-dihydro-2H-isoindol-2-yl)-2-[(4-fluorophenyl)sulfonyl]ethanone] | < 1000
O=C(CS(=O)(=O)c1ncccc1F)N1Cc2ccccc2C1 [Compound 103, 1-(1,3-dihydro-2H-isoindol-2-yl)-2-[(3-fluoropyridin-2-yl)sulfonyl]ethanone] | < 1000
O=C(CS(=O)(=O)c1nccs1)N1Cc2cc(Cl)c(Cl)cc2C1 [Compound 34, 1-(5,6-dichloro-1,3-dihydro-2H-isoindol-2-yl)-2-(1,3-thiazol-2-ylsulfonyl)ethanone] | < 1000
O=C(CSc1ccccc1)N1Cc2ccc(F)cc2C1 [Compound 64, 1-(5-fluoro-1,3-dihydro-2H-isoindol-2-yl)-2-(phenylsulfanyl)ethanone] | < 1000
O=C(CS(=O)(=O)c1nccs1)N1Cc2cc(F)c(F)cc2C1 [Compound 32, 1-(5,6-difluoro-1,3-dihydro-2H-isoindol-2-yl)-2-(1,3-thiazol-2-ylsulfonyl)ethanone] | < 1000
O=C(CSc1ccccn1)N1Cc2ccc(N3CCOCC3)cc2C1 [Compound 77, 1-[5-(morpholin-4-yl)-1,3-dihydro-2H-isoindol-2-yl]-2-(pyridin-2-ylsulfanyl)ethanone] | 5000 to 10000
O=C(CSc1ccccc1)N1Cc2cccc(F)c2C1 [Compound 66, 1-(4-fluoro-1,3-dihydro-2H-isoindol-2-yl)-2-(phenylsulfanyl)ethanone] | < 1000
O=C(CSc1ccccn1)N1Cc2ccc(F)cc2C1 [Compound 16, 1-(5-fluoro-1,3-dihydro-2H-isoindol-2-yl)-2-(pyridin-2-ylsulfanyl)ethanone] | < 1000
O=C(CSc1cccc(F)c1)N1Cc2ccccc2C1 [Compound 56, 1-(1,3-dihydro-2H-isoindol-2-yl)-2-[(3-fluorophenyl)sulfanyl]ethanone] | < 1000
Cc1nnc(SCC(=O)N2Cc3ccccc3C2)s1 [Compound 19, 1-(1,3-dihydro-2H-isoindol-2-yl)-2-[(5-methyl-1,3,4-thiadiazol-2-yl)sulfanyl]ethanone] | 1000 to 5000
